Here are results for two compounds from US10064858B2, “Methods and compositions for treating bacterial infections with iron chelators” (THE UNITED STATES OF AMERICA, AS REPRESENTED BY THE …, priority 2011, dated 2018).

The test system of series [1] is WBA 2090 E. faecilium. As to the kind of experiment: MIC, similar assays. It is filed as cell-based. The method, then:
Individual MICs were determined following the microdilution method recommended by CLSI in cationic-adjusted Mueller-Hinton Broth (CAMHB), or M9 media. […] Tests were performed in triplicate. MIC of iron chelators were determined for noscomial ESKAPE pathogens.

Series [2] has as its system KP ndm. As to the kind of experiment: Checkerboard assay, chelator with antibiotic (FIC). It is filed as cell-based, K. pneumonia. The source says: Drug interactions were initially evaluated with the “checkerboard” microdilution design, which provided a matrix of all drug combinations assayed in terms of fractions of the previously determined MIC. The checkerboard microdilution design is described in R. J. Tallarida, “Drug Synergism: Its Detection and Applications,” Journal of Pharmacology and Experimental Therapeutics, 865-872 (2001); and in R. L. White, et al., (1996), supra. FIGS. 39A and 39B show the wellplates having different concentrations of iron chelator and antibiotic, as labeled along the x-axis and y-axis.
The checkerboard assay was used to asses other combinations of iron chelators and antibiotics. The fractional inhibitory concentration index (FIC), which was calculated as follows: FIC=(MIC A in combination/MIC A)+(MIC B in combination/MIC B). Interaction was defined as synergistic if the FIC was <1.0, preferably <0.5, no interaction if the FIC was >1.0 and <4.0, and antagonistic if the FIC was >4.0.
The assay was run against the multi-drug resistant bacterial species AB 19606, AB 17978, KP ndm, PA PAO1, PA 27853, EC 35718, and EC 43888. Blank spaces indicate concentrations not tested. […] Against the species PA PAO1 and PA 27853, all the antibiotics except for Ami.

Series [3] concerns AB5075, a stain of A. baumannii (Ab). As to the kind of experiment: Development of rifampin resistance over 7 days (OD600). It is filed as cell-based. To be noted: ApoL1 in combination with rifampin; 7 days. The method, then: Development of antibiotic-resistant strains is an ongoing problem in the treatment of bacterial infections. In some embodiments, the present technology provides methods and compositions for reducing, inhibiting or preventing formation of antibiotic-resistant bacterial strains. In some embodiments, the iron chelator of the present technology is administered to a patient as a prophylactic before antibiotic treatment or during antibiotic treatment. In some embodiments, the iron chelator is added concurrently with an antibiotic.
Cultures of AB5075, a stain of A. baumannii (Ab), was cultured in the presence of Rifampin alone, the iron chelator ApoL1 alone or Rifampin combination with ApoL1 for 7 days.

The subject of series [4] is Bioluminescent AB0057. The experiment in a line: Bioluminescent AB0057 challenged with iron chelators. It is filed as cell-based, Acinetobacter baumannii. To be noted: 100 μm; 4 hours; low iron media. The source says: This example studies bioluminescent A. baumannii challenged with iron chelators. AB0057 is a strain of Acinetobacter baumannii available from Robert Bonomo, Case Western Reserve University, Cleveland, Ohio.
As a precursor to conducting this in vitro assay, AB0057 was transformed with a bioluminescent plasmid. The p16Slux plasmid is illustrated in FIG. 38, and further details regarding its development and use are set forth in Christian U. Riedel et al., “Construction of p16Slux, a Novel Vector for Improved Bioluminescent Labeling of Gram-Negative Bacteria,” Appl. Environ. Microbiol. 2007 November; 73(21): 7092-7095.
Bioluminescent AB0057 were grown overnight in LB media and sub-cultured into low iron media in a 96-well plate containing varying concentrations of iron chelators for 4 hours. Bacterial growth was measured by bioluminescence (relative light units). The iron chelators VK28 and DFO were tested along with chelators DIP, ETTA, and EDTA as controls. The chelators were tested a concentrations of 0 μM, […], 3.13 μM, 6.25 μM, 12.5 μM, 25 μM, 50 μM, and 100 μM.

Series [5] concerns MRSA ATCC SA43300. The experiment in a line: Time-kill assay in CAMHB. It is filed as cell-based, S. aureus. The conditions noted are these: 1×MIC and 2×MIC VK28. The method, then:
Reductions in colony forming units (CFU)/mL were determined over time (time-kill assay) after exposure to VK28 and deferiprone (DFP), the two iron chelators that performed best in MIC assays when compared to controls. To better represent the iron content found in the human body, MIC and time-kill assays were also determined in minimal media and tissue culture media. Time-Kill assays were performed as previously described in G. P. Neupane et al., “In vitro time-kill activities of ciprofloxacin alone and in combination with the iron chelator deferasirox against Vibrio vulnificus,” European Journal of Clinical Microbiology and Infectious Diseases, 407-410 (2010); and R. L. White, et al., “Comparison of Three Different In Vitro Methods of Detecting synergy: Time-Kill, Checkerboard, and E test,” Journal of Antimicrobial Agents and Chemotherapy, 1914-1918 (1996). Initial inocula, for example 1×10^6 CFU/mL or 1×10^7 CFU/mL were challenged with iron chelator with and/or without an antibiotic. Cells were allowed to grow in CAMHB at 37° C. for 24 hours. Time-kill results were analyzed by determining the change in log 10 numbers of CFU/ml at 0, 6, and 24 h, compared to counts at 0 h. […]

Series [6] has as its system AB5075 (MRSN959). As to the kind of experiment: Infected punch biopsy wound in mice, topical treatment. It is filed as in vivo. The source says: This example provides an in vivo evaluation of the effectiveness of VK28 in treating a bacterial infection. Mice were wounded with 6 mm punch biopsy and infected with AB5075 (MRSN959) and treated daily for 14 days with poloxamer F-127 gel alone as a control composition (FIG. 11A) or F-127 gel containing 5% VK28 (as a topical composition containing an iron chelator).

The test system of series [7] is MR Staphylococcus aureus (MRSA). As to the kind of experiment: Growth (OD600) with VK28 in M9 media with magnesium and calcium. It is filed as cell-based. To be noted: M9 with 2 mM MgSO4 and 1.35 mM CaCl2; 24 hours. The method, then: In this example, strains of MR Staphylococcus aureus (MRSA), Acinetobacter baumannii (Acinetobacter), Escherichia coli (E. coli), and Pseudomonas aeruginosa (Pseudomonas) were grown in M9 media in the presence of 2 mM MgSO4 and 1.35 mM CaCl2 for 24 hours in the presence or absence of 0 μg/ml, 50 μg/ml, 100 μg/ml, or 200 μg/ml of VK28. The OD600 was measured at 24 hour and the results are shown in the bar graph of FIG. 21.

For series [8] the following is noted: rat; systemically/intravenously; cited from earlier work.

By MIC is commonly meant the smallest concentration in the dilution series that meets the test's criterion for growth inhibition. Read a high MIC as a need for much substance.

Converted amounts (≈) assume the structure as drawn. “Also recorded” adds a separate entry of the source.

Compound `Cc1c(O)c(=O)ccn1C` [ApoL1, 3-hydroxy-1,2-dimethyl-4(1H)-pyridone] yielded an MIC in series [1] of 600 to 700 µg/mL (≈ 4.31 to 5.03 mM). Also, the FIC turned out to be 1.25 in series [2] (in combination with Colisitin) and 0.75 in series [2] (in combination with Rifampin). Also, the “growth of rifampin-resistant strains” value in series [3] is “inhibits growth of an antibiotic resistant Ab strain over 7 days; also recorded: inhibition of rifampin-resistant strains of Ab over the 7 days”.

Take `OCCN1CCN(Cc2ccc(O)c3ncccc23)CC1` [VK28, 5-(4-(2-hydroxyethyl)piperazin-1-ylmethyl)-8-hydroxyquinoline]: the “Bioluminescence (relative light units)” value in series [4] is given as “especially surprisingly lower”. Moreover, in series [5], the time-kill effect result was “bacteriostatic (considered bacteriostatic if the inoculum's size was reduced by 0 to <3 log 10 CFU/ml)”. The wound healing entry in series [6] (F-127 gel containing 5% VK28, topical, daily for 14 days, vs gel alone (FIG. 11)) is “Healing scab and reduced wound size; also recorded: the wound treated with the control composition did not heal as well as the wound treated with the iron chelator composition”; in series [6] (composition containing 1% VK28, other mice), “not particularly efficacious”; in series [6] (composition containing 5% VK28, other mice), “efficacious in promoting wound healing”. In addition, the “inhibition of growth (OD600)” value in series [7] is “inhibition of growth of a number of strains of bacteria is not reduced in the presence of magnesium and calcium”. Also, in series [8], the dose showing toxicity is given as 70 mg/kg.
